Measured values reported in ChEMBL document CHEMBL1154707, “Morpholine derivatives greatly enhance the selectivity of mammalian target of rapamycin (mTOR) inhibitors” (J Med Chem, 2009).

Key:
[1] = Selectivity for FLAG-tagged human mTOR over PI3Kalpha
[2] = molecular target: Serine/threonine-protein kinase mTOR (Homo sapiens, UniProt P42345); assay: Inhibition of FLAG-tagged human mTOR by DELFIA method
[3] = system: LNCaP; assay: Growth inhibition of human LNCAP cells after 3 days by MTS method; type: functional, cell-based; details: 72 h
[4] = molecular target: Phosphatidylinositol 4,5-bisphosphate 3-kinase catalytic subunit alpha isoform (Homo sapiens, UniProt P42336); assay: Inhibition of PI3Kalpha
Sequence of Phosphatidylinositol 4,5-bisphosphate 3-kinase catalytic subunit alpha isoform (P42336 whole entry, canonical isoform): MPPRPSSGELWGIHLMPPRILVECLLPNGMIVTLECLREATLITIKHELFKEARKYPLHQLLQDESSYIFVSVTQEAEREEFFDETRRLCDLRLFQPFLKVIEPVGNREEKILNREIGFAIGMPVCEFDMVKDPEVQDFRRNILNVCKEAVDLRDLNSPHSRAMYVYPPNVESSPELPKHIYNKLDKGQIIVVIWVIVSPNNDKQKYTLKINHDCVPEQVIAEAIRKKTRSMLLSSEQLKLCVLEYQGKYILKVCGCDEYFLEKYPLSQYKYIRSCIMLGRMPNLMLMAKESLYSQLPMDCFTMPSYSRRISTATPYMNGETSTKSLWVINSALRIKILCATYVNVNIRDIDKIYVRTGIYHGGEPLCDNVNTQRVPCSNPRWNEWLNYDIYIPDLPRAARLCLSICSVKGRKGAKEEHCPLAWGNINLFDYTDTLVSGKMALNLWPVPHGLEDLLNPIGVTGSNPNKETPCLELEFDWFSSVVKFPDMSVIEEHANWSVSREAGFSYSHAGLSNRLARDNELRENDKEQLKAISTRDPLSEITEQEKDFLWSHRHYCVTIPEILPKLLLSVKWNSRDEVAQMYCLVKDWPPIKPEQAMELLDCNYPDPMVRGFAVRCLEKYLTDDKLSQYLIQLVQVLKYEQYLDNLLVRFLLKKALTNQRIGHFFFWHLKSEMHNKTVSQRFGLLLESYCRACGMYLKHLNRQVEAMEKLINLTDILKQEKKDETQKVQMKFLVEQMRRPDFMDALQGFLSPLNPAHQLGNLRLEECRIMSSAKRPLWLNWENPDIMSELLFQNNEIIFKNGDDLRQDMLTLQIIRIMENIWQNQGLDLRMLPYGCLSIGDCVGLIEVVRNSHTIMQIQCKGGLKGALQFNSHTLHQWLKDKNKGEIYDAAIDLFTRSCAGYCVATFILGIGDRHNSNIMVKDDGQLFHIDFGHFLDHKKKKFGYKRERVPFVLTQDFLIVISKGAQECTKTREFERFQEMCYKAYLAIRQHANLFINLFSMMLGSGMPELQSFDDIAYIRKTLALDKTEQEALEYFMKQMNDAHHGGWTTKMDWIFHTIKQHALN

[5] = molecular target: Phosphatidylinositol 4,5-bisphosphate 3-kinase catalytic subunit beta isoform (Homo sapiens, UniProt P42338); assay: Inhibition of PI3Kbeta
Sequence of Phosphatidylinositol 4,5-bisphosphate 3-kinase catalytic subunit beta isoform (P42338 whole entry, canonical isoform): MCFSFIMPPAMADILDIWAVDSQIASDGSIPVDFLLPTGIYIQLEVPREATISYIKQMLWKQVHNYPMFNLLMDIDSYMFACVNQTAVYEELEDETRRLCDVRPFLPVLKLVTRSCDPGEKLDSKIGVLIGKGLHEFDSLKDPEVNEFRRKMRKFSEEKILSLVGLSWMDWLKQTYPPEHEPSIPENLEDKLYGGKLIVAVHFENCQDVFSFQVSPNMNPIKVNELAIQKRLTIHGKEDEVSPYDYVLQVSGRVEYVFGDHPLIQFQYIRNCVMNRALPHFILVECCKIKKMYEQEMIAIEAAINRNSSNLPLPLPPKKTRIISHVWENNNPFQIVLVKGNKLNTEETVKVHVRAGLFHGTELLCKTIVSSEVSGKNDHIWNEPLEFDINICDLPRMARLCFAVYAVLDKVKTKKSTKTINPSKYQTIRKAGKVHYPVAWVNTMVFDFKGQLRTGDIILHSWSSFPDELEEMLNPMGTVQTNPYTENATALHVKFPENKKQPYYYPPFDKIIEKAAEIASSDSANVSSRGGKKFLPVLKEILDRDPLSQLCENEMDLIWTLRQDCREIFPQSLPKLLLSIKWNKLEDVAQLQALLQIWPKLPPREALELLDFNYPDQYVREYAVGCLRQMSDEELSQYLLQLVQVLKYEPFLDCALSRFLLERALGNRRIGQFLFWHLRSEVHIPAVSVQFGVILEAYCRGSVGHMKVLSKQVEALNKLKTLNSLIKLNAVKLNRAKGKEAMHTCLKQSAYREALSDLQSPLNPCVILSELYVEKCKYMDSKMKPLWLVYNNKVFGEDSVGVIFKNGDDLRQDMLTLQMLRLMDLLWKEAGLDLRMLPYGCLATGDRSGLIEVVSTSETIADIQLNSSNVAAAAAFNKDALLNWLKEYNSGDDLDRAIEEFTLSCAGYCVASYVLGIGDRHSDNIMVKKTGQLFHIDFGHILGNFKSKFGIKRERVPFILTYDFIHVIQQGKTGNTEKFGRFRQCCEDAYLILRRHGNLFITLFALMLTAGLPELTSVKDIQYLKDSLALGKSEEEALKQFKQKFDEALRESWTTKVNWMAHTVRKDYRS

[6] = molecular target: T1, Phosphatidylinositol 4,5-bisphosphate 3-kinase catalytic subunit delta isoform (Homo sapiens, UniProt O00329); assay: Inhibition of PI3Kdelta
T1 sequence (O00329 whole entry): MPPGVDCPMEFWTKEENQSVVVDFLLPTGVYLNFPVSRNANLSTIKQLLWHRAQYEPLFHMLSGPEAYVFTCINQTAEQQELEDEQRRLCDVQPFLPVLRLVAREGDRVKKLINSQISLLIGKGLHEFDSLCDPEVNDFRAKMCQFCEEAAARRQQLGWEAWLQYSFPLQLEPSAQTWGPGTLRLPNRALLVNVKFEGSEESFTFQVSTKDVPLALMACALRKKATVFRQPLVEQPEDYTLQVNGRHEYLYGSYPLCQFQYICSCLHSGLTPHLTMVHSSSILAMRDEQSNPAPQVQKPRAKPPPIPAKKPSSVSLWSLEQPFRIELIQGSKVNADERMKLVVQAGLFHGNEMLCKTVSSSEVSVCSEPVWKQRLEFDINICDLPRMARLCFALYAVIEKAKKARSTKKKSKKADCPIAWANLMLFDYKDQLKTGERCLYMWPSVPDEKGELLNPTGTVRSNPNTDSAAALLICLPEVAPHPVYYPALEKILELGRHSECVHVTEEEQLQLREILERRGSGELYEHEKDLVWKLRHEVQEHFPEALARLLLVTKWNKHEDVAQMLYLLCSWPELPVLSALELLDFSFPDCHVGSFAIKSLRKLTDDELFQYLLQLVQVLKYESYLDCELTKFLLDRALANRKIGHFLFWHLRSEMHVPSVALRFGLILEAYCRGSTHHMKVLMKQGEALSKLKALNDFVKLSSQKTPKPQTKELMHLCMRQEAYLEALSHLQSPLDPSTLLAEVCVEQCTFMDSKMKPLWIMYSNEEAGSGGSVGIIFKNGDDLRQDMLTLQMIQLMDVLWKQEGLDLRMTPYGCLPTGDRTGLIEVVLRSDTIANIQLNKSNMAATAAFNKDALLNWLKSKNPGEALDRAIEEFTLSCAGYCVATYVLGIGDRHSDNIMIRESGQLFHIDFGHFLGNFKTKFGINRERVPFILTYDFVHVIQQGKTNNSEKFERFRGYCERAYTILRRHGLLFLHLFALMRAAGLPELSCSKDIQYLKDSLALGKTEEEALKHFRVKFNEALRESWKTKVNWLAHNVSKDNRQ

SMILES | Ratio IC50 [1] | IC50 [2] [nM] | other results
CNC(=O)Nc1ccc(-c2nc(N3C4CCC3COC4)c3cnn(CC(F)(F)F)c3n2)cc1 | 2420 |  | 
CCOC(=O)N1CCC(n2ncc3c(N4CCOC[C@@H]4C)nc(-c4ccc(NC(=O)NCCF)cc4)nc32)CC1 | 289 | 1.8 | 
CCNC(=O)Nc1ccc(-c2nc(N3CCOC(C)C3)c3cnn(C4CCN(C(=O)OC)CC4)c3n2)cc1 (stereo unspecified) | 360 | 1.9 | 
COC(=O)N1CCC(n2ncc3c(N4C5CCC4COC5)nc(-c4ccc(NC(=O)Nc5cccnc5)cc4)nc32)CC1 | 11100 | 0.16 | 
CCNC(=O)Nc1ccc(-c2nc(N3CC4CCC(C3)O4)c3cnn(C4CCN(C(=O)OC)CC4)c3n2)cc1 | 26700 | 0.2 | IC50 [3]: 9 nM
COC(=O)N1CCC(n2ncc3c(N4CCOCC4)nc(-c4ccc(NC(=O)Nc5cccnc5)cc4)nc32)CC1 | 175 |  | 
CNC(=O)Nc1ccc(-c2nc(N3CC4CCC(C3)O4)c3cnn(C4CCN(C(=O)OC)CC4)c3n2)cc1 | 8010 | 0.22 | 
COC(=O)N1CCC(n2ncc3c(N4CCOC(C)C4)nc(-c4ccc(NC(=O)Nc5cccnc5)cc4)nc32)CC1 (stereo unspecified) | 135 |  | 
CCNC(=O)Nc1ccc(-c2nc(N3C4CCC3COC4)c3cnn(C4CCN(C(=O)OC)CC4)c3n2)cc1 | 8890 |  | 
CNC(=O)Nc1ccc(-c2nc(N3CCOC(C)C3)c3cnn(C4CCN(C(=O)OC)CC4)c3n2)cc1 (stereo unspecified) | 116 | 2.3 | 
CCOC(=O)N1CCC(n2ncc3c(N4CCOC[C@@H]4C)nc(-c4ccc(NC(=O)Nc5ccncc5)cc4)nc32)CC1 | 32 | 0.58 | 
O=C(NCCF)Nc1ccc(-c2nc(N3CCOCC3)c3cnn(CC(F)(F)F)c3n2)cc1 | 524 |  | 
COC(=O)N1CCC(n2ncc3c(N4CC5CCC(C4)O5)nc(-c4ccc(NC(=O)NC5CC5)cc4)nc32)CC1 | 6910 | 0.62 | IC50 [4]: 4320 nM; IC50 [5]: > 10000 nM; IC50 [6]: 2630 nM
CCNC(=O)Nc1ccc(-c2nc(N3CCOCC3)c3cnn(C4CCN(C(=O)OCC)CC4)c3n2)cc1 | 4140 | 0.17 | 
CNC(=O)Nc1ccc(-c2nc(N3C4CCC3COC4)c3cnn(C4CCN(C(=O)OC)CC4)c3n2)cc1 | 19400 |  | 
CCNC(=O)Nc1ccc(-c2nc(N3CCOC[C@@H]3C)c3cnn(C4CCN(C(=O)OCC)CC4)c3n2)cc1 | 307 | 1.8 | 
CCOC(=O)N1CCC(n2ncc3c(N4CCOC[C@H]4C)nc(-c4ccc(NC(=O)NCCF)cc4)nc32)CC1 | 3670 | 1.2 | 
CCOC(=O)N1CCC(n2ncc3c(N4CCOC[C@H]4C)nc(-c4ccc(NC(=O)Nc5ccncc5)cc4)nc32)CC1 | 1850 |  | 
CCNC(=O)Nc1ccc(-c2nc(N3CCOC[C@H]3C)c3cnn(C4CCN(C(=O)OCC)CC4)c3n2)cc1 | 4980 |  | 

Continued, in another order:

Ratio IC50 [1] | IC50 [2] [nM] | SMILES | other results
11900 | 0.23 | O=C(NCCF)Nc1ccc(-c2nc(N3CC4CCC(C3)O4)c3cnn(CC(F)(F)F)c3n2)cc1 | 
380 |  | CNC(=O)Nc1ccc(-c2nc(N3C[C@@H]4C[C@H]3CO4)c3cnn(CC(F)(F)F)c3n2)cc1 | 
1410 | 0.48 | CNC(=O)Nc1ccc(-c2nc(N3CC4CCC(C3)O4)c3cnn(C4CCN(Cc5cccnc5)CC4)c3n2)cc1 | 
1140 |  | O=C(Nc1ccc(-c2nc(N3C4CCC3COC4)c3cnn(CC(F)(F)F)c3n2)cc1)Nc1cccnc1 | 
2170 | 1.9 | O=C(Nc1ccc(-c2nc(N3C[C@@H]4C[C@H]3CO4)c3cnn(CC(F)(F)F)c3n2)cc1)NC1CC1 | 
179 |  | O=C(Nc1ccc(-c2nc(N3C[C@H]4C[C@@H]3CO4)c3cnn(CC(F)(F)F)c3n2)cc1)NC1CC1 | 
43 | 0.23 | O=C(Nc1ccc(-c2nc(N3CCOCC3)c3cnn(CC(F)(F)F)c3n2)cc1)Nc1cccnc1 | 
114 |  | O=C(Nc1ccc(-c2nc(N3C[C@H]4C[C@@H]3CO4)c3cnn(CC(F)(F)F)c3n2)cc1)Nc1cccnc1 | 
51 |  | CNC(=O)Nc1ccc(-c2nc(N3C[C@H]4C[C@@H]3CO4)c3cnn(CC(F)(F)F)c3n2)cc1 | 
3230 | 0.5 | CNC(=O)Nc1ccc(-c2nc(N3CC4CCC(C3)O4)c3cnn(CC(F)(F)F)c3n2)cc1 | 
5580 | 0.11 | COC(=O)N1CCC(n2ncc3c(N4CC5CCC(C4)O5)nc(-c4ccc(NC(=O)Nc5cccnc5)cc4)nc32)CC1 | 
1820 | 0.19 | O=C(Nc1ccc(-c2nc(N3CC4CCC(C3)O4)c3cnn(CC(F)(F)F)c3n2)cc1)Nc1cccnc1 | 
482 | 1.2 | O=C(Nc1ccc(-c2nc(N3C[C@@H]4C[C@H]3CO4)c3cnn(CC(F)(F)F)c3n2)cc1)Nc1cccnc1 | 
194 |  | CNC(=O)Nc1ccc(-c2nc(N3CCOCC3)c3cnn(CC(F)(F)F)c3n2)cc1 | 
